For one assay, the target named is Procathepsin L (Homo sapiens, UniProt P07711). In words: Inhibition of human liver cathepsin L after 5 mins by microplate reader analysis.
The target in a further assay is Cathepsin B (Homo sapiens, UniProt P07858). In words: Inhibition of human liver cathepsin B after 5 mins by microplate reader analysis.
The next assay deals with NCI-H460. In words: Cytotoxicity against human NCI-H460 cells after 48 hrs by SRB assay. The format is functional. The conditions noted are these: NCI-H460, 48 h. On the technique in general: In SRB staining, fixed cells bind dye roughly in proportion to their protein.
A further assay deals with DU-145. In words: Cytotoxicity against human DU145 cells after 48 hrs by SRB assay. Conditions: DU-145, 48 h. The format is functional.

The IC50 is the point on the concentration scale where inhibition reaches its midpoint. The low end stands for greater potency in that assay, the high end for weaker potency in that assay. What is called GI50 is the concentration giving 50% growth inhibition. A higher GI50 goes with lower sensitivity of the cells.

Procathepsin L, sequence (P07711 whole entry): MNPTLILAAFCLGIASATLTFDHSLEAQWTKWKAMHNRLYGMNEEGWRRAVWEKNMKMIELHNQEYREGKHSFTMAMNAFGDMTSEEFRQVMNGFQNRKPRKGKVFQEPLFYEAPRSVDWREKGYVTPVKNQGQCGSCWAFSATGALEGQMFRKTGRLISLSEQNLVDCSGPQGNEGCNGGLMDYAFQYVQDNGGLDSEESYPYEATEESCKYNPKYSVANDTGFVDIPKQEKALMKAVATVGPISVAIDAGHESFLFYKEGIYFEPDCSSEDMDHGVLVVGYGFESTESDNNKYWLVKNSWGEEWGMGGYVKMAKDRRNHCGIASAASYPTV

With `NC(=S)NN=C1c2cc(Br)ccc2-c2ccc(Br)cc21`, the IC50 at Procathepsin L and against Cathepsin B was over 10 µM each time.

For `NC(=S)N/N=C(/c1ccccc1)c1cccc(O)c1`, the IC50 at Procathepsin L and against Cathepsin B was over 10 µM each time.

Regarding `NC(=S)N/N=C(\c1cccc(O)c1)c1cccc(Br)c1`, the figures for the GI50 with NCI-H460 and in the assay on DU-145 were 23.3 µM and 21.6 µM, respectively. For the same compound, the IC50 against Procathepsin L is 0.131 µM; on Cathepsin B, over 10 µM.

In the case of `NC(=S)N/N=C(/c1ccccc1)c1cccs1`, the IC50 on Procathepsin L and against Cathepsin B was over 10 µM throughout.

On to `NC(=S)N/N=C(/c1cccc(Br)c1)c1sccc1Br`, for which the figures for the IC50 at Procathepsin L and against Cathepsin B were 0.37 µM and over 10 µM, respectively.

With `NC(=S)N/N=C(/c1cccc(Br)c1)c1cc(Br)cs1`, the IC50 on Procathepsin L is 0.814 µM; against Cathepsin B, over 10 µM.

On to `NC(=S)N/N=C(/c1cccc(Br)c1)c1ccc(Br)s1`, for which the IC50 against Procathepsin L was 0.931 µM; on Cathepsin B, over 10 µM.

In the case of `NC(=S)N/N=C(/c1ccccc1)c1cccnc1`, the IC50 against Procathepsin L and against Cathepsin B was over 10 µM each time.

Turning to `NC(=S)N/N=C(\c1cccnc1)c1cccc(Br)c1`, the IC50 was 1 µM against Procathepsin L and over 10 µM on Cathepsin B.

Regarding `NC(=S)N/N=C(\c1ccc(Br)nc1)c1cccc(Br)c1`, the IC50 on Procathepsin L and against Cathepsin B was over 10 µM each time.

Consider `NC(=S)N/N=C(/c1cccc(Br)c1)c1cccnc1Br`, for which the IC50 at Procathepsin L and at Cathepsin B was over 10 µM each time.

Turning to `NC(=S)N/N=C(/c1cccc(Br)c1)C1CCCCC1`, the IC50 against Procathepsin L and against Cathepsin B was over 10 µM in each case.

Consider `NC(=S)N/N=C(\Cc1ccccc1)c1ccccc1`, for which the 50% inhibitory concentration (IC50) was 5.41 µM on Procathepsin L and over 10 µM against Cathepsin B.

`NC(=S)NN=C1c2ccccc2-c2ccccc21`: the IC50 at Procathepsin L and at Cathepsin B was over 10 µM each time.

For `CC(C)(C)[Si](C)(C)Oc1ccc(/C(=N\NC(N)=S)c2cccc(Br)c2)cc1Br`, the IC50 against Procathepsin L and on Cathepsin B was over 10 µM in each case.

`NC(=S)N/N=C(/c1cccc(Br)c1)c1cc(O)cc(Br)c1`: the IC50 on Procathepsin L was 0.232 µM; on Cathepsin B it was over 10 µM.

`CC(C)(C)[Si](C)(C)Oc1cc(Br)cc(/C(=N\NC(N)=S)c2cccc(Br)c2)c1`: the IC50 against Procathepsin L and against Cathepsin B was over 10 µM throughout.

In the case of `NC(=S)N/N=C(/c1cccc(Br)c1)c1cccc(Br)c1O`, the IC50 against Procathepsin L and against Cathepsin B was over 10 µM in each case.

On to `COc1ccc(/C(=N\NC(N)=S)c2cc(OC)c(OC)c(OC)c2)cc1O`, for which the figures for the IC50 against Procathepsin L and on Cathepsin B were 3.6 µM and 1.42 µM, respectively.

Take `NC(=S)N/N=C(/c1cccc(Br)c1)c1ccc2c(c1)CCCC2`: the results for the IC50 against Procathepsin L and on Cathepsin B were 9.65 µM and over 10 µM, respectively.

In the case of `CC(=O)Oc1cccc(/C(=N\NC(N)=S)c2cccc(Br)c2)c1`, the IC50 against Procathepsin L came to 0.151 µM; at Cathepsin B, 1.6 µM.

Turning to `NC(=S)N/N=C(/c1cccc(Br)c1)c1cccc(OCc2ccccc2)c1`, the IC50 against Procathepsin L and against Cathepsin B was over 10 µM throughout.

For `CC(C)(C)[Si](C)(C)Oc1cccc(/C(=N\NC(N)=S)c2cccc(Br)c2)c1`, the IC50 on Procathepsin L and on Cathepsin B was over 10 µM throughout.

Regarding `NC(=S)N/N=C(/c1cccc(Br)c1)c1ccc(O)c(Br)c1`, the concentration for half-maximal inhibition (IC50) was 0.126 µM against Procathepsin L and 9.49 µM on Cathepsin B.

Consider `NC(=S)NN=C(c1ccccc1)c1ccccc1` [BENZOPHENONE-THIOSEMICARBAZONE], for which the IC50 against Procathepsin L and on Cathepsin B was over 10 µM in each case.

(Values after ChEMBL document CHEMBL1268983, “Functionalized benzophenone, thiophene, pyridine, and fluorene thiosemicarbazone derivatives as inhibitors of cathepsin L” (Bioorg Med Chem Lett, 2010).)
